Measurements taken from article PMC10262914 (Bioorganic chemistry, 2022).

What was measured:
[1] = system: Mycobacterium tuberculosis H37Rv; test: Alamar blue metabolic readout assay; type: cell-based; details: M. tuberculosis H37Rv, GAS media
[2] = Microsomal stability assay, marmoset; details: marmoset hepatic microsomes
[3] = system: Mycobacterium tuberculosis H37Rv; test: Low oxygen recovery assay; type: cell-based; details: M. tuberculosis H37Rv, low oxygen "latent" conditions
[4] = system: Mycobacterium tuberculosis H37Rv; test: Alamar blue metabolic readout assay; type: cell-based; details: M. tuberculosis H37Rv, 7H12 media
[5] = Microsomal stability assay, mouse; details: mouse hepatic microsomes
[6] = Microsomal stability assay, human; details: human hepatic microsomes

SMILES: [2H]c1c(C([2H])([2H])[2H])cn2c(C(=O)NC([2H])([2H])c3ccc(C(F)(F)F)cc3)c(C([2H])([2H])[2H])nc2c1[2H] [Compound 57, 2,6-Bis(Methyl-d3)-N-((4-(trifluoromethyl)phenyl)methyl-d2) imidazo[1,2-a]pyridine-7,8-d2-3-carboxamide]
- GAS MIC [1]: 5.7 ± 1.2 nM
- CLint [2]: 60 ml/min/g protein
- Half-life ([2]; 2 μM compound, 0.5 mg/mL): 23 min
- LORA MIC [3]: >10,000 nM
- 7H12 MIC [4]: 6.7 ± 0.9 nM
- CLint [5]: 78 ml/min/g protein
- CLint [6]: 32 ml/min/g protein
- Half-life ([6]; 2 μM compound, 0.5 mg/mL): 43 min
